From ChEMBL document CHEMBL1124610, “Tyrphostins I: synthesis and biological activity of protein tyrosine kinase inhibitors” (J Med Chem, 1989)

What follows are compounds tested against T1, Epidermal growth factor receptor (Homo sapiens, UniProt P00533) (assay: Inhibition of EGF-dependent epidermal growth factor receptor autophosphorylation (inactive)).
T1 sequence (P00533 whole entry): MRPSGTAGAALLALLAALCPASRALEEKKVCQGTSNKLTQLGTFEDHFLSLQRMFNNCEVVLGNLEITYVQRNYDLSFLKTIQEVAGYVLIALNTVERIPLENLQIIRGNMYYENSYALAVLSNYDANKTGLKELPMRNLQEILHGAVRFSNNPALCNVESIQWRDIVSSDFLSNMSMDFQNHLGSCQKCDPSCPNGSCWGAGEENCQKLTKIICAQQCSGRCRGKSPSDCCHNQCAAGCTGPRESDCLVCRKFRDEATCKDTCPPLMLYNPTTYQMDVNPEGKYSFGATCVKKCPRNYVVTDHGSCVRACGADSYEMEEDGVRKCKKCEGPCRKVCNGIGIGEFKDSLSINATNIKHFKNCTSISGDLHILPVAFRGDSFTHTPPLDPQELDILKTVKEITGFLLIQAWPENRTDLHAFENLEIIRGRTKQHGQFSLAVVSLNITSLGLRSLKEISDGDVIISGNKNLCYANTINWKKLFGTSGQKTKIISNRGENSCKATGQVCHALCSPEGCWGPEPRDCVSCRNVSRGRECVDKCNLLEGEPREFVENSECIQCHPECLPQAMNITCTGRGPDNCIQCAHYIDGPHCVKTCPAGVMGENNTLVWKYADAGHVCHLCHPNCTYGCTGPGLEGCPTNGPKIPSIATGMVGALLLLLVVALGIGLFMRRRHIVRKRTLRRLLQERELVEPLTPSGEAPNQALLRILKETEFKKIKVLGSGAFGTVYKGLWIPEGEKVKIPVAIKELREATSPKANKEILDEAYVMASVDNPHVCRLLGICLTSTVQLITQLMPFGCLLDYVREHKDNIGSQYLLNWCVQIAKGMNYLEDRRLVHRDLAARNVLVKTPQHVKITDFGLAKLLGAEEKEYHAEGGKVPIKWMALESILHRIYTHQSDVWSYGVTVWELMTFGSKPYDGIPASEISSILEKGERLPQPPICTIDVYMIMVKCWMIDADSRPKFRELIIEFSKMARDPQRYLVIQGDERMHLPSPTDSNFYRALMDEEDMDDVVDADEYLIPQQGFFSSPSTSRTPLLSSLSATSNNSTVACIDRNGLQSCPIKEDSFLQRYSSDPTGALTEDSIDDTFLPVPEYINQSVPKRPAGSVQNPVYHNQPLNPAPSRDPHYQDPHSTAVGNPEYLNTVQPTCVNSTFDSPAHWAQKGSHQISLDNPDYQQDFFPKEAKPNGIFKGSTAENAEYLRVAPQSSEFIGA
With O=[N+]([O-])c1ccc(O)c(O)c1 [4-Nitrocatechol] the IC50 was “Not Active” and the Ki was “Not Active”. With O=C(O)c1ccc(O)cc1 [PARABEN] the IC50 was “Not Active” and the Ki was “Not Active”.

These compounds were tested against T1, Epidermal growth factor receptor (assay: (§1) Inhibitory concentration of EGF dependent autophosphorylation of epidermal growth factor receptor kinase).
COc1cc(/C=C(\C#N)C(=O)O)ccc1O gave an IC50 of 800 µM. With N#C/C(=C\c1ccc(O)c(O)c1)C(=O)O the IC50 was 70 µM. COc1cc(/C=C(\C#N)C(=O)O)cc(OC)c1O was tested, and the IC50 was 700 µM. Compound N#C/C(=C\c1ccc(C=O)cc1)C(=O)O has an IC50 of 140 µM. For Cc1ccc(/C=C(\C#N)C(=O)O)cc1, the IC50 was 1350 µM. CN(C)c1ccc(/C=C(\C#N)C(=O)O)cc1 showed an IC50 of 1400 µM. Work on COc1ccc(/C=C(\C#N)C(=O)O)cc1 yielded an IC50 of 2500 µM. In the case of N#C/C(=C\c1ccccc1)C(=O)O, the IC50 is reported as over 2500 µM. N#C/C(=C\c1ccc(F)cc1)C(=O)O was tested, and the IC50 was 2500 µM. N#C/C(=C\c1ccc(O)cc1)C(=O)O [alpha-CYANO-4-HYDROXYCINNAMIC ACID] showed an IC50 of 308 µM.

The compounds below were run against T1, Epidermal growth factor receptor (assay: as §1).
With N#C/C(=C\c1ccc(O)c(O)c1)C(N)=O the IC50 was 10 µM. With N#CC(C#N)=Cc1ccc(O)cc1 the IC50 was 560 µM. Compound CC(=C(C#N)C#N)c1ccc(NC(=O)CCC(=O)O)cc1 has an IC50 of 500 µM. For COc1cc(C=C(C#N)C#N)cc([N+](=O)[O-])c1O, the IC50 was 160 µM. Compound N#CC(C#N)=Cc1ccc(NC(=O)CCC(=O)O)cc1 has an IC50 of 640 µM. For COc1cc(/C=C(\C#N)C(=O)O)ccc1O, the IC50 was 800 µM. N#C/C(=C\c1ccc(O)cc1)C(N)=O gave an IC50 of 800 µM. For O=C(O)C(=Cc1ccc(O)cc1)C(=O)O, the IC50 was 1500 µM. In the case of N#CC(C#N)=Cc1ccc(O)c([N+](=O)[O-])c1, the IC50 is reported as 125 µM. Work on N#CC(C#N)=C1C(=O)NC(=O)NC1=O yielded an IC50 of 1400 µM. N#CC(C#N)=C(N)/C(C#N)=C/c1ccc(O)c(O)c1 gave an IC50 of 2.5 µM. N#CC(C#N)=C(O)c1cc(O)c(O)c(O)c1 showed an IC50 of 13.5 µM. Work on N#CC(C#N)=C(N)/C(C#N)=C/c1ccc(O)c([N+](=O)[O-])c1 yielded an IC50 of 60 µM. Compound N#C/C(=C\c1ccc([N+](=O)[O-])cc1)C(=O)O has an IC50 of 1300 µM. For N#CC(C#N)=Cc1cccc(O)c1, the IC50 was 375 µM. In the case of N#CC(C#N)=Cc1ccc[nH]1, the IC50 is reported as 260 µM. For N#CC(C#N)=NNc1ccc(O)cc1, the IC50 was 225 µM. For N#CC(C#N)=Cc1ccc(C=O)cc1, the IC50 was 60 µM. Work on COc1ccc(C(O)=C(C#N)C#N)cc1 yielded an IC50 of 450 µM. N#CC(C#N)=Cc1ccc(N2CCOCC2)cc1 gave an IC50 of over 625 µM. Work on COc1cc(C=C(C#N)C#N)cc(OC)c1O yielded an IC50 of 850 µM. In the case of N#CC(C#N)=Cc1cc[n+]([O-])cc1, the IC50 is reported as 1300 µM. Work on N#C/C(=C\c1ccc(O)c(O)c1)C(=O)O yielded an IC50 of 70 µM. N#C/C=C/c1ccc(O)cc1 gave an IC50 of 2400 µM. With N#CCNC(=O)/C(C#N)=C/c1ccc(O)cc1 the IC50 was 625 µM. With N#CC(C#N)Cc1ccc(O)cc1 the IC50 was 6500 µM. N#CC(C#N)=C(N)/C(C#N)=C/c1ccc(O)cc1 was tested, and the IC50 was 0.125 µM. N#C/C(=C/c1cc(O)ccc1O)C(=O)O gave an IC50 of 75 µM. With N#CC(C#N)=Cc1cc(O)cc(O)c1 the IC50 was 37 µM. With COc1cc(/C=C(\C#N)C(=O)O)cc(OC)c1O the IC50 was 700 µM. N#CC(C#N)=Cc1ccc(F)cc1 was tested, and the IC50 was over 1250 µM. N#C/C(=C\c1ccc(C=O)cc1)C(=O)O was tested, and the IC50 was 140 µM. With N#CC(C#N)=Cc1cc(O)ccc1[N+](=O)[O-] the IC50 was 96 µM. Work on COc1cc(/C(C)=C(\C#N)C(=O)O)ccc1O yielded an IC50 of 1100 µM. CCCCc1cc(/C=C(\C#N)C(N)=O)cc(CCCC)c1O was tested, and the IC50 was 55 µM. For CC(=C(C#N)C#N)c1ccc(N)cc1, the IC50 was over 1250 µM. Work on COc1cc(C=C(C#N)C#N)cc(Br)c1O yielded an IC50 of 153 µM. N#C/C(=C/c1ccc[nH]1)C(=O)O was tested, and the IC50 was 1360 µM. N#CC(C#N)=Cc1ccc([N+](=O)[O-])c(O)c1 showed an IC50 of 450 µM. Work on COc1ccc(/C=C(\C#N)C(=O)O)cc1 yielded an IC50 of 2500 µM. N#C/C(=C\c1ccccc1)C(=O)O was tested, and the IC50 was over 2500 µM. COc1cc(C=C(C#N)C#N)cc(OC)c1 showed an IC50 of over 1250 µM. N#CC(C#N)=Cc1ccncc1 was tested, and the IC50 was 250 µM. For N#CC(C#N)=Cc1ccc(/C=C/C(=O)O)cc1, the IC50 was 450 µM. With N#CC(C#N)=C(N)/C(C#N)=C/c1cc(O)c(O)c(Br)c1 the IC50 was 0.5 µM. N#CC(C#N)=CNc1ccc(O)cc1 was tested, and the IC50 was 350 µM. Work on COc1ccc(NN=C(C#N)C#N)cc1 yielded an IC50 of 600 µM. In the case of COc1cc(C=C(C#N)C#N)ccc1O, the IC50 is reported as 200 µM. N#CC(C#N)=Cc1ccc(C(=O)O)cc1 gave an IC50 of 430 µM. N#C/C(=C\c1ccc(F)cc1)C(=O)O gave an IC50 of 2500 µM. COc1ccc(C=C(C#N)C#N)cc1O showed an IC50 of over 250 µM. With N#CC(C#N)=C(O)c1ccc(O)cc1 the IC50 was 230 µM. Work on COc1cc(C=C(C#N)C#N)cc(O)c1O yielded an IC50 of 6 µM. In the case of O=C(O)/C=C/c1ccc(O)c(O)c1 [CAFFEIC ACID], the IC50 is reported as 1200 µM. Work on O=C(O)/C=C/c1ccc(O)cc1 [COUMARIC ACID] yielded an IC50 of 3000 µM. O=CN/C=C/c1cc(O)ccc1O [ERBSTATIN] gave an IC50 of 14 µM. With N[C@@H](Cc1ccc(O)c(O)c1)C(=O)O [LEVODOPA] the IC50 was 900 µM. For N#CC(C#N)=Cc1cc(O)c(O)c(O)c1 [TYRPHOSTIN 25], the IC50 was 3 µM. N#CC(C#N)=C(N)/C(C#N)=C/c1cc(O)c(O)c(O)c1 [TYRPHOSTIN 51] gave an IC50 of 0.8 µM. CC(C)(C)c1cc(C=C(C#N)C#N)cc(C(C)(C)C)c1O [TYRPHOSTIN A9] was tested, and the IC50 was 460 µM. With N#C/C(=C\c1ccc(O)cc1)C(=O)O [alpha-CYANO-4-HYDROXYCINNAMIC ACID] the IC50 was 308 µM.
